Tests used:
Format in all cases: biochemical
JAK3 = biological target: T1, JAK3 (Homo sapiens, UniProt P52333); assay: experiment of inhibiting kinase activity (Caliper mobility shift assay), JAK3; settings: for inhibition at 0.1 µM: at 100 nM; for inhibition at 0.1 µM / inhibition at 0.01 µM: read-out: inhibition rate JAK3; for inhibition at 0.01 µM: at 10 nM
T1 sequence (P52333 1-1124): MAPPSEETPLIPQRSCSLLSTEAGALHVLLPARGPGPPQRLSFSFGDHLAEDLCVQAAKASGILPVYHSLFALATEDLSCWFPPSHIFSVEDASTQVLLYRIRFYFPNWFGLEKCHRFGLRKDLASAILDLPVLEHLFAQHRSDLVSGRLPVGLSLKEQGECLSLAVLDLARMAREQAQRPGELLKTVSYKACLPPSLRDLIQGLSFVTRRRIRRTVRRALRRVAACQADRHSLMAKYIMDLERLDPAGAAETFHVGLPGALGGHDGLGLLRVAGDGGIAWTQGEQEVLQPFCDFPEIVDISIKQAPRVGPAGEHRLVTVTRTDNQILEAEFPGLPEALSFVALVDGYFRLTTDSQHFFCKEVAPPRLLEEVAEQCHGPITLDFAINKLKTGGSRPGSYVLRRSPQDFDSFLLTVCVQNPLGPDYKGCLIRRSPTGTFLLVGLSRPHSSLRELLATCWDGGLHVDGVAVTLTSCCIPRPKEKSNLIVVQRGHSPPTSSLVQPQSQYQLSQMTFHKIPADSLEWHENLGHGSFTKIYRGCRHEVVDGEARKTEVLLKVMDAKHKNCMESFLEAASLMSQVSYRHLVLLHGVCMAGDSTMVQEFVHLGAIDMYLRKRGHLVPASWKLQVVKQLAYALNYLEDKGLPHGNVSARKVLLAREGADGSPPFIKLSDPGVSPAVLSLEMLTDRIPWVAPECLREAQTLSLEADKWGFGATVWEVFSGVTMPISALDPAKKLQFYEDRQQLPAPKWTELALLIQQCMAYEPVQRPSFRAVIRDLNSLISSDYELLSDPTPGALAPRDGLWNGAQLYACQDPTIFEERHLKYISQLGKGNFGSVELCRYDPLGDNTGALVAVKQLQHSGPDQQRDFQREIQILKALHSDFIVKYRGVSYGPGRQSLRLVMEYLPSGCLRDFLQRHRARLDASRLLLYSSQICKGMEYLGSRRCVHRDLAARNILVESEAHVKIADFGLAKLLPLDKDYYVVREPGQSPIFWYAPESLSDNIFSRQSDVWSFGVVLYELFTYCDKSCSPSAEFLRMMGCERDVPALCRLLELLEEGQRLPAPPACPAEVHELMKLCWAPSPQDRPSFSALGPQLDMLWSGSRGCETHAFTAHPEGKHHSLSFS
Experimental: (§1) The inhibition rates of tested compounds on JAK1, JAK2, JAK3, TYK2, CDK7, CDK9, EGFR (T790M) and LRRK2 kinases were measured. The test concentrations of the compounds were 10 nM and 100 nM, and the detection was performed by replicate wells. Alternatively, compounds were 3-fold serial diluted from 10 µM for 10 concentrations in replicate wells.
(§2) The inhibitory effects of the compounds on JAK1, JAK2, JAK3, CDK7 and CDK9 kinases were detected by the method of Caliper mobility shift assay. 250 nL of the compound at 100-fold final concentration was transferred to a destination plate 384-well-plate by using a liquid handler Echo 550. A kinase solution at 2.5-fold final concentration was prepared with 1×kinase buffer. 10 µL of the kinase solution with 2.5-fold final concentration was added to compound wells and positive control wells; and 10 µL of 1×kinase buffer was added to negative control wells. The mixture was centrifuged at 1000 rpm for 30 seconds and then incubated at room temperature for 10 minutes. A mixed solution of ATP and kinase substrate at 5/3-fold final concentration was prepared with 1×kinase buffer, and 15 µL of the mixed solution of ATP and substrate at 5/3-fold final concentration was added to start the reaction. The 384-well plate was centrifuged at 1000 rpm for 30 seconds, shaked and mixed evenly, then incubated at room temperature for a corresponding time. 30 µL of stop solution was added to stop the kinase reaction, the mixture was centrifuged at 1000 rpm for 30 seconds, and shaked and mixed evenly. The conversion rate was read by Caliper EZ Reader. The conversion inhibition rate%=(average positive control conversion rate%-sample conversion rate%)/(average positive control conversion rate%-average negative control conversion rate%). Where negative control wells represent the conversion readings of the background well of kinase buffer; and positive control wells represent the conversion readings of wells without compound inhibition. With the log value of concentration as the x axis and the percentage inhibition rate as the y axis, the dose-response curve was fitted by the log (inhibitor) vs. response-variable slope of the analyzing softwar GraphPad Prism 5, and the IC50 values of each compound on enzyme activity were obtained. Calculation formula is as follows: y=Bottom+(Top-Bottom)/(1+10^((LogIC50-x)×hillslope)), where x is logarithm of inhibitor concentration; and Y is % inhibition rate.

TYK2 = TYK2 (Homo sapiens, UniProt P29597); assay: experiment of inhibiting kinase activity, TYK2; settings: read-out: inhibition rate TYK2; for inhibition at 0.1 µM: at 100 nM; for inhibition at 0.01 µM: at 10 nM
Experimental: as §1

CDK7 = CDK7 (Homo sapiens, UniProt P50613); assay: experiment of inhibiting kinase activity (Caliper mobility shift assay), CDK7; settings: for inhibition at 0.1 µM: at 100 nM; for inhibition at 0.1 µM / inhibition at 0.01 µM: read-out: inhibition rate CDK7; for inhibition at 0.01 µM: at 10 nM; for IC50: kinase activity assay, Table 3
Experimental: as §1, §2

JAK2 = JAK2 (Homo sapiens, UniProt O60674); assay: experiment of inhibiting kinase activity (Caliper mobility shift assay), JAK2; settings: for inhibition at 0.01 µM: at 10 nM; for inhibition at 0.01 µM / inhibition at 0.1 µM: read-out: inhibition rate JAK2; for inhibition at 0.1 µM: at 100 nM
Experimental: as §1, §2

LRRK2 = LRRK2 (Homo sapiens, UniProt Q5S007); assay: experiment of inhibiting kinase activity, LRRK2; settings: for inhibition at 0.1 µM: at 100 nM; for inhibition at 0.1 µM / inhibition at 0.01 µM: read-out: inhibition rate LRRK2; for inhibition at 0.01 µM: at 10 nM; for IC50: kinase activity assay, Table 3
Experimental: as §1

Chain of CDK7 (P50613 whole entry, species assumed): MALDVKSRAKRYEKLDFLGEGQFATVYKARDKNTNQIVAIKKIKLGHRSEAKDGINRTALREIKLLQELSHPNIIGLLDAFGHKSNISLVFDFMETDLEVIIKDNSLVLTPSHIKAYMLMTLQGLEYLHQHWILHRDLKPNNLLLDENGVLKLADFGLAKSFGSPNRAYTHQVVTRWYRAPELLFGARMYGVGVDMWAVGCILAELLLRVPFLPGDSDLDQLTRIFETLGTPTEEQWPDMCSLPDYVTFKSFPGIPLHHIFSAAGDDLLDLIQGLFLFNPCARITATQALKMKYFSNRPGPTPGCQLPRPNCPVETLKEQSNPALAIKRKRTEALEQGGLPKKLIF
Chain of CDK7 (P51946 whole entry partner, species assumed): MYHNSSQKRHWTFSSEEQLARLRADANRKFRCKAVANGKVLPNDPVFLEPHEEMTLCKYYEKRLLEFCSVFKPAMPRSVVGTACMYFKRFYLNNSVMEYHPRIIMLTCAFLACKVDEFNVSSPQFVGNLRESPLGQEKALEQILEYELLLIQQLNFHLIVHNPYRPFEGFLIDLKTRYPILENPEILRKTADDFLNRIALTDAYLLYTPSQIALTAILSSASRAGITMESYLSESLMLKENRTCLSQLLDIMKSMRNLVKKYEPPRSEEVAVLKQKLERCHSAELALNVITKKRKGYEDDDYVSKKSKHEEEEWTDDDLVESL
Chain of CDK7 (P51948 whole entry partner, species assumed): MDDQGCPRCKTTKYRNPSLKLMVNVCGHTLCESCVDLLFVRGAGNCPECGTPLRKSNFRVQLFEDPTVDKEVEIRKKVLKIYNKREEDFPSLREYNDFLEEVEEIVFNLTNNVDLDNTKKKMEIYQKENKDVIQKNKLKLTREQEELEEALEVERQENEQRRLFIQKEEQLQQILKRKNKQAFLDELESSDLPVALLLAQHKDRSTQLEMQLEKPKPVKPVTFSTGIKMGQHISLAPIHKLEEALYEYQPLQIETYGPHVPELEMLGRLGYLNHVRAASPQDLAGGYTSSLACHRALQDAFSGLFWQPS
Chain of LRRK2 (Q5S007 whole entry): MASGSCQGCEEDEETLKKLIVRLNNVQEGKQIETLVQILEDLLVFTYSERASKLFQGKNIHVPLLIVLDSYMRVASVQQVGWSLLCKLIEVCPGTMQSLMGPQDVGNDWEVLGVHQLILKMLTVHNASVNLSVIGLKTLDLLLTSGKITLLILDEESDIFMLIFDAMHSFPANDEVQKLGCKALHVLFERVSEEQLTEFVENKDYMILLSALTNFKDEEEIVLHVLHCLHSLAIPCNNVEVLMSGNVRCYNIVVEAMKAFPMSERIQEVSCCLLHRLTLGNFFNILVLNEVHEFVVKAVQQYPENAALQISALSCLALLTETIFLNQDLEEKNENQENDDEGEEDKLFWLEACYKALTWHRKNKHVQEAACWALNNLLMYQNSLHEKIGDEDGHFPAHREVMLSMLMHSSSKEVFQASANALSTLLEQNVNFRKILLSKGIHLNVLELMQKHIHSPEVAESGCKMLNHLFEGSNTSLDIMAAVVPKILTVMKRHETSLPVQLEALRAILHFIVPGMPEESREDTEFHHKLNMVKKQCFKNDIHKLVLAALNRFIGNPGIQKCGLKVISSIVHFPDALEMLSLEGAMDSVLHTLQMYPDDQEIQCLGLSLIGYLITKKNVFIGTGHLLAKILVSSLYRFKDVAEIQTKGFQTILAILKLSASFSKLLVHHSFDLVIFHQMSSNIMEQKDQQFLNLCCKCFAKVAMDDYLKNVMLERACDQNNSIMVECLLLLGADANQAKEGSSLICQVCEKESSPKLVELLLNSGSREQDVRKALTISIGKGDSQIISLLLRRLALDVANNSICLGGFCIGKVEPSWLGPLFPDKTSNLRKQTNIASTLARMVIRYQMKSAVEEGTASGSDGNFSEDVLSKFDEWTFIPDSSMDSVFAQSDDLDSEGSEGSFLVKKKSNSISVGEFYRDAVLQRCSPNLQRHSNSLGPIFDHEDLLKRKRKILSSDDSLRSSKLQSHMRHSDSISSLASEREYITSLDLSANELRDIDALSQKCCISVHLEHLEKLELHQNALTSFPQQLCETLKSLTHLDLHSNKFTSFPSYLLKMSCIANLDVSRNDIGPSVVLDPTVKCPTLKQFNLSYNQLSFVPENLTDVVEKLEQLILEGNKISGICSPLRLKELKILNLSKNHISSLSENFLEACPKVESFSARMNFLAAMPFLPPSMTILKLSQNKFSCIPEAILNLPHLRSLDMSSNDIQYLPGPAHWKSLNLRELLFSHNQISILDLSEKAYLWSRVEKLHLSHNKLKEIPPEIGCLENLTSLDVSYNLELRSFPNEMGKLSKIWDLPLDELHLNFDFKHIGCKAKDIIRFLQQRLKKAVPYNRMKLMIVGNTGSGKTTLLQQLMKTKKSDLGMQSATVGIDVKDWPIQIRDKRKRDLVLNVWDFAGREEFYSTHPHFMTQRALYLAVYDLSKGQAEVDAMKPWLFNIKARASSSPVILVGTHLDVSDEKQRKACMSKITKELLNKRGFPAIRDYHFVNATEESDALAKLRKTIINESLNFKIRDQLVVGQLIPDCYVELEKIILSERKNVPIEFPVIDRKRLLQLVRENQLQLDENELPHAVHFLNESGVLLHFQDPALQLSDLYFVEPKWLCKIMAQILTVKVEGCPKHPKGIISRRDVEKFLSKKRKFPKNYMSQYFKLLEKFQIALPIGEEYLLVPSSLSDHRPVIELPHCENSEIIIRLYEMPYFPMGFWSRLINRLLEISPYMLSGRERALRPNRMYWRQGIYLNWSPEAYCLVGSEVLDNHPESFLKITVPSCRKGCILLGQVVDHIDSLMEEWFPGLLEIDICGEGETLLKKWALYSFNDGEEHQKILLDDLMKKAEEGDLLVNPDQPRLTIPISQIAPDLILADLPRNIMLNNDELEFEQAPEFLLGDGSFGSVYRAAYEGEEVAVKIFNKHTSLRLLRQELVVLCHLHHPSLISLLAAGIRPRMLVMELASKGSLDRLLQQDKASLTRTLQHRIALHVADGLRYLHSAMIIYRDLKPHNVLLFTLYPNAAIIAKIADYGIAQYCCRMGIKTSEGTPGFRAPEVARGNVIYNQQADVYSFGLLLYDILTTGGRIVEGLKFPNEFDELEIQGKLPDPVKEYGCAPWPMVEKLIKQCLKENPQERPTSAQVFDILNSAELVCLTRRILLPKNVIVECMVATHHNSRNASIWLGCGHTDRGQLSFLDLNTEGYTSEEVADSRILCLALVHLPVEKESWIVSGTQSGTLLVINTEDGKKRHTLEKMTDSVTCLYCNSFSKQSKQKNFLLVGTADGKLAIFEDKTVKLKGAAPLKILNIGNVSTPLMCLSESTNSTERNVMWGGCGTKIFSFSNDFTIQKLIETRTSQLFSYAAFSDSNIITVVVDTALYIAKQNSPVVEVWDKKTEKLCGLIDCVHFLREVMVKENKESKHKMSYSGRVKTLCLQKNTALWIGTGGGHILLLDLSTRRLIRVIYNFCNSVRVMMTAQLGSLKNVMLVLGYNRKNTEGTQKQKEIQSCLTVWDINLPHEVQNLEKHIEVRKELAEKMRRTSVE
Chain of JAK2 (O60674 whole entry): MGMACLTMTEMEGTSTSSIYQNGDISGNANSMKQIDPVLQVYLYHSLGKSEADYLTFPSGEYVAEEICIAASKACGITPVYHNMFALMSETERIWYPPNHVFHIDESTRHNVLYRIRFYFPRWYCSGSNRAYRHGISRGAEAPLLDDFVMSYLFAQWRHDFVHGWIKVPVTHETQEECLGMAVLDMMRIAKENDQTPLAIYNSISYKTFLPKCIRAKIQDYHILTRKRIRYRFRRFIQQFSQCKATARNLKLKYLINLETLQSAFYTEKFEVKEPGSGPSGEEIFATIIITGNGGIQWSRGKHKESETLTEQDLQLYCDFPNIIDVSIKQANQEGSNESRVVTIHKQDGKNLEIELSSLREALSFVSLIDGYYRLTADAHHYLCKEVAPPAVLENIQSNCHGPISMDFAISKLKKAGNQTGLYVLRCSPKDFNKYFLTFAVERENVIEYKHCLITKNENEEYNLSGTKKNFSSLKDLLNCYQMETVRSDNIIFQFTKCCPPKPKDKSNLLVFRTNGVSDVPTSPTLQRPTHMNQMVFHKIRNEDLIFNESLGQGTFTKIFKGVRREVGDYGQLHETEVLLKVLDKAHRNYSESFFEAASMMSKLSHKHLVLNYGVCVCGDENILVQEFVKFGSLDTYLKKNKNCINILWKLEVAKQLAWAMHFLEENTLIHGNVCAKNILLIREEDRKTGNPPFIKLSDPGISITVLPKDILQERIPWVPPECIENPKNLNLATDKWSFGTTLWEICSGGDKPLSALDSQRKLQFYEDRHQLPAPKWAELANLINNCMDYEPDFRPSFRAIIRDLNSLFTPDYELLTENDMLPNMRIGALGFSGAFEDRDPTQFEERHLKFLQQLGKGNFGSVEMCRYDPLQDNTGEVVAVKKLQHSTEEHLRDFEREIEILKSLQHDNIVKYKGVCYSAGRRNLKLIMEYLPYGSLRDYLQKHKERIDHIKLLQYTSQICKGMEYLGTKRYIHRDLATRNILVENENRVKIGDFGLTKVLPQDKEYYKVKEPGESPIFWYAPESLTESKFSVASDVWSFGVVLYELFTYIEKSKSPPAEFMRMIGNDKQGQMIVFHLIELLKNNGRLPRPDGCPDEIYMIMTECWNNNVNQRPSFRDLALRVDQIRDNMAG

inhibition at 0.1 µM (JAK3) [%]	IC50 (JAK3; kinase activity assay, Table 3) [nM]	inhibition at 0.1 µM (TYK2) [%]	inhibition at 0.1 µM (CDK7) [%]	inhibition at 0.01 µM (JAK2) [%]	inhibition at 0.1 µM (JAK2) [%]	inhibition at 0.01 µM (JAK3) [%]	inhibition at 0.01 µM (TYK2) [%]	inhibition at 0.1 µM (LRRK2) [%]	inhibition at 0.01 µM (LRRK2) [%]	IC50 (LRRK2) [nM]	inhibition at 0.01 µM (CDK7) [%]	IC50 (CDK7) [nM]	IC50 (JAK2; kinase activity assay, Table 3) [nM]	SMILES
> 80	< 50	> 80	25 to 39											CN1CCOc2ccc(Nc3nc(-c4ccc(C(=O)NCC#N)cc4)c4cc[nH]c4n3)cc2OCC1 [Example 2]
> 80		> 80	40 to 79	40 to 79	> 80	40 to 79	25 to 39	40 to 79						CC(C)S(=O)(=O)c1ccccc1Nc1nc(Nc2ccc3c(c2)OCCOCCN(C)CCO3)nc2[nH]ncc12 [Example 11, N^4-(2-(isopropylsulfonyl)phenyl)-N^6-(7-methyl-2,3,6,7,8,9-hexahydro-5H-benzo[b][1,4, 7]trioxa[10]azacyclododecan-13-yl)-1H-pyrazolo[3,4-d]pyrimidin-4,6-diamine]
25 to 39			> 80		40 to 79			> 80	25 to 39	< 50	40 to 79	< 50		CC(C)S(=O)(=O)c1ccccc1Nc1nc(Nc2ccc3c(c2)OCCN(C)CCOCCO3)nc2[nH]ncc12 [Example 12, N^4-(2-(isopropylsulfonyl)phenyl)-N^6-(7-methyl-2,3,6,7,8,9-hexahydro-5H-benzo[b][1,4, 7]trioxa[10]azacyclododecan-12-yl)-1H-pyrazolo[3,4-d]pyrimidin-4,6-diamine]
40 to 79		25 to 39	40 to 79	40 to 79	> 80			> 80	40 to 79	< 50		< 50	< 50	CN1CCOCCOc2ccc(Nc3nc(Nc4cccc(S(=O)(=O)NC(C)(C)C)c4)c4cc[nH]c4n3)cc2OCC1 [Example 19, N-(tert-butyl)-3-((2-((7-methyl-2,3,6,7,8,9-hexahydro-5H-benzo[b][1,4,7]trioxa[10]azacyclododecan-12-yl)amino)-7H-pyrrolo[2,3-d]pyrimidin-4-yl)amino)benzenesulfonamide]
			40 to 79		40 to 79			25 to 39						CN1CCOCCOc2cc(Nc3nc(-c4cn(C)c5ccccc45)c4cn[nH]c4n3)ccc2OCC1 [Example 24, 7-methyl-N-(4-(1-methyl-1H-indol-3-yl)-1H-pyrazolo[3,4-d]pyrimidin-6-yl)-2,3,6,7,8,9-hexahydro-5H-benzo[b][1,4,7]trioxa[10]azacyclododecan-13-amine]
> 80			40 to 79		40 to 79	25 to 39		> 80	> 80	< 50				CN1CCOCCOc2cc(Nc3nc(Nc4ccccc4P(C)(C)=O)c4cn[nH]c4n3)ccc2OCC1 [Example 33, dimethyl(2-((6-((7-methyl-2,3,6,7,8,9-hexahydro-5H-benzo[b][1,4,7]trioxa[10]azacyclododecan-13-yl)amino)-1H-pyrazolo[3,4-d]pyrimidin-4-yl)amino)phenyl)phosphine oxide]
25 to 39			40 to 79		40 to 79			> 80		< 50				CC(C)S(=O)(=O)c1ccccc1Nc1nc(Nc2ccc3c(c2)OCCN(C)CCO3)nc2[nH]ncc12 [Example 36, N^4-(2-(isopropylsulfonyl)phenyl)-N^6-(4-methyl-3,4,5,6-tetrahydro-2H-benzo[b] [1,4,7]dioxazolin-9-yl)-1H-pyrazolo[3,4-d]pyrimidin-4,6-diamine]
			25 to 39		40 to 79			40 to 79		< 50				CN1CCOc2ccc(Nc3nc(-c4cn(C)c5ccccc45)c4cc[nH]c4n3)cc2OCC1 [Example 39, 4-methyl-N-(4-(1-methyl-1H-indol-3-yl)-7H-pyrrolo[2,3-d]pyrimidin-2-yl)-3,4,5,6-tetrahydro-2H-benzo[b][1,4,7]dioxazolin-9-amine]
				> 80			> 80				25 to 39			CN1CCOCCOc2ccc(Nc3ncc(F)c(-c4cnn(C(CC#N)C5CCCC5)c4)n3)cc2OCC1 (centres unmarked) [Example 42, 3-cyclopentyl-3-(4-(5-fluoro-2-((7-methyl-2,3,6,7,8,9-hexahydro-5H-benzo[b][1,4,7]trioxa[10]azacyclododecan-12-yl)amino)pyrimidin-4-yl)-1H-pyrazol-1-yl)propanenitrile]
				40 to 79		40 to 79			> 80		> 80			CC(C)S(=O)(=O)c1ccccc1Nc1nc(Nc2ccc3c(c2)OCCN(C)CCOCCO3)nc2[nH]ccc12 [Example 53, N^4-(2-(isopropylsulfonyl)phenyl)-N^2-(7-methyl-2,3,6,7,8,9-hexahydro-5H-benzo[b][1,4,7]trioxa[10]azacyclododecan-12-yl)-7H-pyrrolo[2,3-d]pyrimidin-2,4-diamine]
25 to 39			40 to 79		40 to 79			> 80						CN1CCOCCOc2cc(Nc3nc(Nc4cccc(S(N)(=O)=O)c4)c4cc[nH]c4n3)ccc2OCC1 [Example 67, 3-((2-((7-methyl-2,3,6,7,8,9-hexahydro-5H-benzo[b][1,4,7]trioxa[10]azacyclododecan-13-yl)amino)-7H-pyrrolo[2,3-d]pyrimidin-4-yl)amino)benzenesulfonamide]
				40 to 79		40 to 79			> 80	< 50	25 to 39			CC(=O)N1CCOCCOc2cc(Nc3nc(Nc4ccccc4S(=O)(=O)C(C)C)c4cc[nH]c4n3)ccc2OCC1 [Example 98, 1-(13-((4-((2-(isopropylsulfonyl)phenyl)amino)-7H-pyrrolo[2,3-d]pyrimidin-2-yl)amino)-2,3,5,6,8,9-hexahydro-7H-benzo[b][1,4,7]trioxa[10]azacyclododecan-7-yl)ethan-1-one]
